# Target: T1, β3-AR (Homo sapiens, UniProt P13945)
# T1 construct: Full-length β3-AR clones (402 amino acids) containing the last 6 amino acids of hβ3-AR are prepared; expressed in transfected cells; host or cells: CHO cells
# Experiment: cAMP accumulation (SPA) in CHO cells transfected with β3-AR
# Format: cell-based
# Details: for EC50: CHO cells transfected with human β3-AR, cAMP, 30 min incubation, 10^-9 to 10^-5 M; for IA(β3): maximal response relative to maximal response of isoproterenol at 10^-5 M
# Protocol: The ability of the compounds of this invention to treat or inhibit disorders related to insulin resistance or hyperglycemia was confirmed with representative compounds of this invention in the following standard pharmacological test procedures, which measured the binding selectivity of the β1-, β2-, and β3-AR. Binding to the receptors was measured in Chinese Hamster ovary (CHO) cells that were transfected with β1-, β2-, and β3-AR's. The following briefly summarizes the procedures used and results obtained.
# cDNA was constructed by ligating four polymerase chain reaction (PCR) products using the following primers: an ATG-Narl fragment, sense primer 5′-[…]3′ and anti-sense primer 5′ […]3′; a Narl-Accl fragment, 5′[…]3′ as sense and 5′[…]3′ as anti-sense primer; an Accli-Styl fragment, sense primer 5° […]3′ and anti-sense primer 5′[…]3′ and a Styl-TAG fragment, with sense primer 5° […]3′ and anti-sense primer 5° […]3′. The corresponding primer sequences are described in Mantzoros, C. S., et.al., Diabetes, 1996, 45, 909-914. The four fragments are ligated into a pUC 18 plasmid (Gibco-BRL) and sequenced. Full-length β3-AR clones (402 amino acids) containing the last 6 amino acids of hβ3-AR are prepared with the β3-βARpcDNA3 from ATTC.
# Clones expressing receptor levels of 70 to 110 fmoles/mg protein were used in the test procedures. CHO cells were grown in 24-well tissue culture plates in Dulbecco's Modified Eagle Media with 10% fetal bovine serum, MEM non-essential amino acids, Penicillin-Streptomycin and Geneticin. On the day of test procedure, growth medium was replaced with preincubation media (Dulbecco's Modified Eagle Media) and incubated for 30 minutes at 37° C. Pre-incubation medium was replaced with 0.2 ml treatment medium containing DMEM media containing 250 μM IBMX (isobutyl-1-methylxantine) plus 1 mM ascorbic acid with test compound dissolved in DMSO. Test compounds were assayed over a concentration range of 10^−9 M to 10^−5M for β3-AR transfected cells and 10^−8 to 10^−4 M for […] transfected cells. Isoproterenol (10^−5 M) was used as an internal standard for comparison of activity. Cells were incubated at 37° C. on a rocker for 30 min with the β3-AR transfected cells and 15 min with β1-AR and β2-AR transfected cells. Incubation was stopped by the addition of 0.2N HCl and the acid was neutralized with 2.5N NaOH. The plates, containing the cells and neutralized media, were stored at −20° C. until ready to test for cAMP using the SPA test kit (Amersham).
# Data collected from the SPA test procedure were analyzed as percent of the maximal isoproterenol response at 10^−5 M. Activity curves were plotted using the SAS statistical and graphics software.
# T1 sequence (P13945 whole entry): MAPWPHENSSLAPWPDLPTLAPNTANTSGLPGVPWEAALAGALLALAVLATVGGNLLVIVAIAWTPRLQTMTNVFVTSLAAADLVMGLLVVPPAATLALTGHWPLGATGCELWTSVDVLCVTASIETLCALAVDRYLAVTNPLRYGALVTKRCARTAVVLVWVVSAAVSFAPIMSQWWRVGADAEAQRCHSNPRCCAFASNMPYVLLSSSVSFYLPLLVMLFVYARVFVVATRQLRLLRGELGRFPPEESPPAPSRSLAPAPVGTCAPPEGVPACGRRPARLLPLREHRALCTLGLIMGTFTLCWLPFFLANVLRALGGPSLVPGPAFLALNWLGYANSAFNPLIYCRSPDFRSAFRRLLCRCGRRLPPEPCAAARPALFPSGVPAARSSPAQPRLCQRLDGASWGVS
EC50 [nM],IA(β3),Compound
40,1.1,"COC(=O)CC1Cc2ccc(-c3ccc(CNC[C@H](O)c4ccc(O)c(NS(C)(=O)=O)c4)cc3)cc2NC1=O (stereo partly drawn) [Example 1, [7-(4-{[(2R)-2-Hydroxy-2-(4-hvdroxy-3-methanesulfonylamino-phenyl)-ethylamino]-methyl}-phenyl)-2-oxo-1,2,3,4-tetrahydro-quinolin-3-yl]-acetic Acid Methyl Ester]"
90,1.0,CCOC(=O)CC1Cc2cc(-c3cccc(CNC[C@H](O)c4ccc(O)c(NS(C)(=O)=O)c4)c3)ccc2NC1=O (some centres unmarked) [Example 2]
60,1.0,"COC(=O)CC1Cc2ccc(-c3cccc(CNC[C@H](O)c4ccc(O)c(NS(C)(=O)=O)c4)c3)cc2NC1=O (stereo partly drawn) [Example 3, [7-(3-{[(2R)-2-Hydroxy-2-(4-hydroxy-3-methanesulfonylamino-phenyl)-ethylamino]-methyl}-phenyl)-2-oxo-1,2,3,4-tetrahydro-quinolin-3-yl]-acetic acid methyl ester]"
70,1.0,"Ethyl [6-(4-{[(2R)-2-hydroxy-2-{4-hydroxy-3-[(methylsulfonyl)amino]-phenyl}ethyl)amino]methyl}phenyl)-2-oxo-1,2,3,4-tetrahydroquinolin-3-yl]acetate [Example 4]"
